For assay [1], the target named is T1, Protein skinhead-1 (Caenorhabditis elegans, UniProt P34707).
T1 sequence (P34707 whole entry): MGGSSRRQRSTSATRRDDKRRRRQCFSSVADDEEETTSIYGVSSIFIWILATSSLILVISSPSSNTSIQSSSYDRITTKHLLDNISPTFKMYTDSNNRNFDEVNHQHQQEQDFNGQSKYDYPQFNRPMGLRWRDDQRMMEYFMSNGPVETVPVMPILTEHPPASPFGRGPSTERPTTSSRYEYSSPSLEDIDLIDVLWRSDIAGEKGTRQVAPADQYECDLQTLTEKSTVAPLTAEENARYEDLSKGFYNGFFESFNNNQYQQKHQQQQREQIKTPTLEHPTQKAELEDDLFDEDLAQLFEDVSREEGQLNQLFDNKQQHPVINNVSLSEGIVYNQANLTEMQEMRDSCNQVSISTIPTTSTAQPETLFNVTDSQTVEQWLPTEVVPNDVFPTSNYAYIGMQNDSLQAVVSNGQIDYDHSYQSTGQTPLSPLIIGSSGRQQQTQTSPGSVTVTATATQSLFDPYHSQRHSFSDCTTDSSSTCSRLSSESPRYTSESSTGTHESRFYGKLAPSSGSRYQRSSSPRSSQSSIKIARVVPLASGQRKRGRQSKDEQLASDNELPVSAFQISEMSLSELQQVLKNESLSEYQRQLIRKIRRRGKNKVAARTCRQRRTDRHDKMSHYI
Type of assay: functional.

The nature of assay [2]: Luminescence Cell-Based Dose Confirmation HTS to Identify Inhibitors of Platelet Dense Granule Release. [Related pubchem assays: 1663 (Primary HTS), 1678 (Summary of Project)]. Type of assay: functional.
In assay [3] the target is Luciferin 4-monooxygenase (Photinus pyralis, UniProt P08659). As to the kind of experiment: firefly luciferase enzyme inhibitors, dose response, biochemical, luminescence (AID 1891).
Assay [4] deals with T2, Replicative DNA helicase DnaB (Mycobacterium tuberculosis, UniProt P9WMR3).
T2 sequence (P9WMR3 whole entry): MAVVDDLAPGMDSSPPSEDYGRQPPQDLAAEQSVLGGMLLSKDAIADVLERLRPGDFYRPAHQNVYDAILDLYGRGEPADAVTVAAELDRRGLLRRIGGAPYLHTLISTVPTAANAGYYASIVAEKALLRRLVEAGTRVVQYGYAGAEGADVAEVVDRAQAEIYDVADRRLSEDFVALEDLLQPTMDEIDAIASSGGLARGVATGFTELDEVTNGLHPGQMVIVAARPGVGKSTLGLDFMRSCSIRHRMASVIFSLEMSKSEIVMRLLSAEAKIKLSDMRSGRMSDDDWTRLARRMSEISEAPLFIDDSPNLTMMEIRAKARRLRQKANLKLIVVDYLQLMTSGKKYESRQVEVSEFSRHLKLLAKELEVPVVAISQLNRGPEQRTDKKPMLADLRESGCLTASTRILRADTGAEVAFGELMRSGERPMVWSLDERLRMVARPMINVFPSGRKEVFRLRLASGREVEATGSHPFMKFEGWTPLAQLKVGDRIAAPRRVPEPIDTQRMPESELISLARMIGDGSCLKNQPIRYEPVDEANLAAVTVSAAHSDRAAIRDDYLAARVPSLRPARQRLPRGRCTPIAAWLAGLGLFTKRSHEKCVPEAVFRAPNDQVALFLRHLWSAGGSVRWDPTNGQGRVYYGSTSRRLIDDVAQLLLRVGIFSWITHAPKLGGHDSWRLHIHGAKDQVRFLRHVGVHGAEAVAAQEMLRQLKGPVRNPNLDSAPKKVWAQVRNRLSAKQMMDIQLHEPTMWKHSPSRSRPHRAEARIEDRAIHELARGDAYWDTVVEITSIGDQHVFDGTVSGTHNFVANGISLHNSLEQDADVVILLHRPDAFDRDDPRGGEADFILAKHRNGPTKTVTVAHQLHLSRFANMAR
Description: DnaB intein splicing inhibitors, dose response, biochemical, cell-free fluorescence (AID 449749). It counts as functional.

The target in assay [5] is T3, Protein RecA (Mycobacterium tuberculosis, UniProt P9WHJ3).
T3 sequence (P9WHJ3 whole entry): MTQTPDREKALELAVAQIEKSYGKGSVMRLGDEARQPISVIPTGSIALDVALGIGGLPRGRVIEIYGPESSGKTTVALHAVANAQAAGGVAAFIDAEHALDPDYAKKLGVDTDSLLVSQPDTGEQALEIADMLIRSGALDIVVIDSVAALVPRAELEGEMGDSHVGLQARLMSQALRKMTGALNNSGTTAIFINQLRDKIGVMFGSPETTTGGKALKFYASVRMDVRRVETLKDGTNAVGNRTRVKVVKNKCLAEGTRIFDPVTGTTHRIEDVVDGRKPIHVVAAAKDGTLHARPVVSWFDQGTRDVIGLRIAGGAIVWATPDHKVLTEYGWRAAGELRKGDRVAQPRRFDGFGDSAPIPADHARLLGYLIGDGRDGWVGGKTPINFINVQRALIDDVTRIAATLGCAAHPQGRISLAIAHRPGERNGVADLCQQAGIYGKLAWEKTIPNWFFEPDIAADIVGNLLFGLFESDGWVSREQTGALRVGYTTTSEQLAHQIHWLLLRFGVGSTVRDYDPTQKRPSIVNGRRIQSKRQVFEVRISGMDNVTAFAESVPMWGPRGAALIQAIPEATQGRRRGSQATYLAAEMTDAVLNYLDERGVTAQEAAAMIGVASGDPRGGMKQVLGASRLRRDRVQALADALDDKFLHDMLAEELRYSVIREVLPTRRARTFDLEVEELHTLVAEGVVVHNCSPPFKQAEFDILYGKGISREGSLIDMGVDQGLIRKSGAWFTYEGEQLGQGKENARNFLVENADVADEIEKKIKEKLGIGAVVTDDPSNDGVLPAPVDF
As to the kind of experiment: Fluorescence Cell-Free Homogeneous Dose Retest to Identify Inhibitors of RecA-Intein Splicing Activity. [Related pubchem assays (depositor defined):AID2097, AID2223, AID489010, AID492950]. Type of assay: functional.

A short description of assay [6]: HEp-2 cell cytotoxicity, dose response, cytotoxicity control for RSV inhibitor project, HTS (AID 2410). It counts as functional. As to conditions: human respiratory syncytial virus.
The target in assay [7] is Cytochrome P450 2C9 (Homo sapiens, UniProt P11712).
Assay [8] deals with T4, Cytochrome P450 1A2 (Homo sapiens, UniProt P05177).
T4 sequence (P05177 whole entry): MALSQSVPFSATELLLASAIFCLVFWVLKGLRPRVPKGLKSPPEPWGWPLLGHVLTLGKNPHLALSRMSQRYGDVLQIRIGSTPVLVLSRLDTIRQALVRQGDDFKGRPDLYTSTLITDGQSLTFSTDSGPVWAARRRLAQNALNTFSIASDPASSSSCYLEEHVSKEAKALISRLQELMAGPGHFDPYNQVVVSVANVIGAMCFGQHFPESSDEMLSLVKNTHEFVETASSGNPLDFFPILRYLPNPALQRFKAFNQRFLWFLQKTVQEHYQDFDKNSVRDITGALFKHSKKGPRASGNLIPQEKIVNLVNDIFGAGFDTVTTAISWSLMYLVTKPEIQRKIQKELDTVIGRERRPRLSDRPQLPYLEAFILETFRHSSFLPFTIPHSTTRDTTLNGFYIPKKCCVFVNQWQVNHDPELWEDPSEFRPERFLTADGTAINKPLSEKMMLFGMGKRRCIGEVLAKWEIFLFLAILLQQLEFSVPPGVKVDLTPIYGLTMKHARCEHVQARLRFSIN

Assay [9] addresses Cytochrome P450 2C19 (Homo sapiens, UniProt P33261). As to the kind of experiment: Cytochrome panel assay with activity outcomes. Panel member name: p450-cyp2c19 Compounds with AC50 equal or less than 10 uM are considered active. It counts as functional. As to conditions: read-out: AC50.
Assay [10] can be described thus: Luminescence Cell-Based Dose Retest to Confirm Inhibitors of Cancer Stem Cells. [Related pubchem assays (depositor defined):AID2717, AID2721]. Type of assay: functional, Homo sapiens. As to conditions: Homo sapiens.
The target of assay [11] is Cytochrome P450 3A4 (Homo sapiens, UniProt P08684).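 Note: CYP3A4 tested as one member of a cytochrome P450 panel screen.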

What is called IC50 is the point on the concentration scale where inhibition reaches its midpoint. For orientation: EC50 means the concentration needed to bring the measured effect to its halfway point. One may read the AC50 as the concentration at which the activity in the assay is half-maximal. Broadly, the CC50 is the concentration giving 50% cytotoxicity.

Activity calls are given as the source filed them.

Luciferin 4-monooxygenase, sequence (P08659 whole entry): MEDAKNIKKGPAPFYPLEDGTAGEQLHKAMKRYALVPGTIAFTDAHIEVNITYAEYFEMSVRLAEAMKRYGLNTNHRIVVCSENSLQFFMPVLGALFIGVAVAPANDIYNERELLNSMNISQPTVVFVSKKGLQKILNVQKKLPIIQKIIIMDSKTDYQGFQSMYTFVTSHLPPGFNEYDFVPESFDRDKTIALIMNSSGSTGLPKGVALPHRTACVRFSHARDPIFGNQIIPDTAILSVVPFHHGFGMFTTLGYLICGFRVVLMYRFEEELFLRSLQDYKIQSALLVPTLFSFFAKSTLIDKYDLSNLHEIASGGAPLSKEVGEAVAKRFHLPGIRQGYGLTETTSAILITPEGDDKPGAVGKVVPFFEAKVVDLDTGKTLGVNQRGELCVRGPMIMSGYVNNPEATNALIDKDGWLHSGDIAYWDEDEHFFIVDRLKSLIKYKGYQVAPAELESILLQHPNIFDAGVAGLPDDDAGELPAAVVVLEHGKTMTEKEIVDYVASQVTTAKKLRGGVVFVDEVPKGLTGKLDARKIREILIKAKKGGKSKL
Cytochrome P450 2C19, sequence (P33261 whole entry): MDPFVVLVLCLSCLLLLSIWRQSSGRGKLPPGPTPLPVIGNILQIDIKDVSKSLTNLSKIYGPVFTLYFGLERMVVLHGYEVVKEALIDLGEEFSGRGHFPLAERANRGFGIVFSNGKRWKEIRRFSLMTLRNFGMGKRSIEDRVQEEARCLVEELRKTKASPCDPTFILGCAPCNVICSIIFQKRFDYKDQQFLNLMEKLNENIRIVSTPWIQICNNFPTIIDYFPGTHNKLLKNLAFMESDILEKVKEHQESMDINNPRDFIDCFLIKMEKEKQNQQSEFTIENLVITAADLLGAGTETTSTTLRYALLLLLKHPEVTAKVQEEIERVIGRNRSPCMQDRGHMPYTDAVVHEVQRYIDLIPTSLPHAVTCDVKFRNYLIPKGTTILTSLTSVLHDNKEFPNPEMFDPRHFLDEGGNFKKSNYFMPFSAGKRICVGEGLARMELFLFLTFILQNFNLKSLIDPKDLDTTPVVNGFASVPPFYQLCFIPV
Cytochrome P450 3A4, sequence (P08684 whole entry): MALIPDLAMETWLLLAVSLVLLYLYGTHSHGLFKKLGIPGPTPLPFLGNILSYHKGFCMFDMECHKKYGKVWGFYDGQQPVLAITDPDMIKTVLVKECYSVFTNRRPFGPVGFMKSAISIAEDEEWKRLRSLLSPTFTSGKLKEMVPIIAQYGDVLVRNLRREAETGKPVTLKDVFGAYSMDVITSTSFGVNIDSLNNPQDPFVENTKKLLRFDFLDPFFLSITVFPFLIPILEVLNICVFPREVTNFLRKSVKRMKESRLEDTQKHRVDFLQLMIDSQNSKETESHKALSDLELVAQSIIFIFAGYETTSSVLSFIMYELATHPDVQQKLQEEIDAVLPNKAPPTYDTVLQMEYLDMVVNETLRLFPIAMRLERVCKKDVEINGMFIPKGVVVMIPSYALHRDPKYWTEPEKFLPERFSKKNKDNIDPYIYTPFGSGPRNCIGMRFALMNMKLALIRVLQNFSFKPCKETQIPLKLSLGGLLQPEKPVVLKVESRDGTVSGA
Cytochrome P450 2C9, sequence (P11712 whole entry): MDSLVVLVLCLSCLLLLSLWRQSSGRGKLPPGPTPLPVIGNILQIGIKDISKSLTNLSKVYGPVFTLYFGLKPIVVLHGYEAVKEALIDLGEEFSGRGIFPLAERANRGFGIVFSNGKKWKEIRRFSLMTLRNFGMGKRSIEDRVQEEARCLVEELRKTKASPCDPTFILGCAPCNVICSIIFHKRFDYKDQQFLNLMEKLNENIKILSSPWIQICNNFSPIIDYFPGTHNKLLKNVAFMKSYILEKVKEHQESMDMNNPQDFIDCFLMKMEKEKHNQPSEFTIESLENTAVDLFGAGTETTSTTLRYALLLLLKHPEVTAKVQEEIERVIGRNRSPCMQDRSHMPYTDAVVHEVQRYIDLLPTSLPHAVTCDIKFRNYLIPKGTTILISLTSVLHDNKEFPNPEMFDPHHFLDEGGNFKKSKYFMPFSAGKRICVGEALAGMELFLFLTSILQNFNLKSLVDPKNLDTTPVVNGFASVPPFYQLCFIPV

For `CC(C)NC(=O)C1(C)CSCC(=O)N1CCCN1CCOCC1` (configuration not stated), in assay [1], the IC50 is > 100 µM (inactive).

Turning to `COC(=O)c1ccc(S(=O)(=O)N2CCCCCC2)cc1`, in [1], the IC50 was > 100 µM (inactive).

Consider `CCCCOC(=O)c1ccc(OC(=O)N2CCOCC2)cc1`, for which the EC50 in assay [2] and in assay [3] was > 112 µM (not active) each time.

For the compound `CC(C)C(=O)NCCc1nc(-c2ccccc2Cl)no1`, the IC50 in assay [1] is > 100 µM (inactive).

Consider `COCc1n[nH]c2c1C(c1ccccc1F)C(C#N)=C(N)O2` (configuration not stated), for which, in [4], the AC50 is 36.4 µM (active). Moreover, in assay [5], the EC50 is 6.49 µM (active).

For `CCOC(=O)c1cc2cc(OC)ccc2nc1C`, the EC50 in assay [2] and in assay [3] was > 112 µM (not active) throughout.

On to `COc1cc2c(cc1OC)-c1cc(Nc3cccc(C)c3)nc(=O)n1CC2`, for which the EC50 in assay [2] is 4.03 µM (active); in assay [3], > 112 µM (not active).

`c1ccc2sc(-c3ccncc3)nc2c1`: in assay [6], the CC50 was 25.5 µM (active). Also, the IC50 in assay [1] is 54.5 µM (inactive).

With `COc1cc(N)c(Cl)cc1C(=O)N[C@H]1CCN(CCCOc2ccc(F)cc2)C[C@@H]1OC`, the figures for the AC50 in assay [7], in [8] and in assay [9] were 1 µM (active), 25.1 µM (inconclusive) and 0.794 µM (active), respectively.

Regarding `CCN1CCN(Cc2nc3c(c(=O)[nH]c(=O)n3C)n2Cc2ccccc2Cl)CC1`, the EC50 in assay [2] was 18.6 µM (active); in assay [3], > 112 µM (not active).

For the compound `COc1cc(C(=O)Nc2nccs2)cc(OC)c1OC`, the IC50 in assay [1] was > 100 µM (inactive).

Consider `O=C(Nc1ccc2c(c1)OCO2)Nc1ccccc1F`, for which the values for the EC50 in assay [2] and in [3] were 3.42 µM (active) and 1.77 µM (active), respectively.

For `C[C@@H](CN)CC(=O)O`, the AC50 in assay [8] is 39.8 µM (inconclusive).

On to `COc1ccc(-c2cc(-c3ccccc3)[nH]n2)c(O)c1`, for which the IC50 in [1] is > 100 µM (inactive).

Regarding `Cc1ccc(NC(=O)COc2ccc(Br)cc2CO)cc1S(=O)(=O)N1CCOCC1`, the IC50 in [1] was > 100 µM (inactive).

Take `CCCCCCCCCCCCCCCC(=O)C(F)(F)F`: the AC50 in assay [8] was 31.6 µM (inconclusive).

Regarding `O=C1NC(c2ccc(-c3ccccc3[N+](=O)[O-])o2)C(C(=O)c2ccc(Cl)cc2)C(O)(C(F)(F)F)N1` (configuration not stated), the AC50 in [4] was 4.27 µM (active); in [10], 9.56 µM (active).

Take `O[C@H](CN1CCN(c2cccc(Cl)c2)CC1)C(c1ccccc1)c1ccccc1`: the AC50 in assay [8] is 31.6 µM (inconclusive).

For the compound `O=C(Nc1ccc(-c2cn3ccsc3n2)cc1)C1COc2ccccc2O1` (configuration not stated), in assay [1], the IC50 was > 100 µM (inactive).

As for `Cc1nnc(SCCn2c(N3CC(C)CC(C)C3)nc3c2c(=O)n(C)c(=O)n3C)s1` (configuration not stated), the IC50 in assay [1] is > 100 µM (inactive).

Consider `CSc1nc(-c2ccco2)nn1C(=O)c1cccs1`, for which the AC50 in assay [4] was 28.3 µM (active). Also, the EC50 in assay [5] is 24.7 µM (active).

On to `COc1ccc(NC(=O)c2cnn(-c3ccccc3)c2C)cc1`, for which the values for the EC50 in assay [2] and in [3] were 6.03 µM (active) and 16.6 µM (active), respectively.

For `COC(=O)[C@@H]1[C@@H]2C[C@H]3c4[nH]c5cc(OC)ccc5c4CCN3C[C@@H]2C[C@H](OC(=O)/C=C\c2cc(OC)c(OC)c(OC)c2)[C@H]1OC`, the AC50 in [8] was 3.16 µM (inconclusive).

Take `CCOC(=O)CCCN`: in assay [8], the AC50 was 6.31 µM (inconclusive).

`CC(C)(C)NC(=O)COC(=O)c1cncc(Br)c1`: the AC50 in [11] is 15.8 µM (inconclusive); in assay [8], 20 µM (inconclusive).

With `OC(CNC1CCCC1)COc1ccc(-c2ccccc2)cc1` (configuration not stated), in assay [1], the half-inhibitory concentration (IC50) is 45.6 µM (active).

As to `C=CCn1c(S)nnc1-c1cc(Cl)ccc1OC`, the EC50 in assay [2] is recorded as > 112 µM (not active).

With `CN(C)c1ccc([C@@H]2N([C@H](C#N)c3ccc(N(C)C)cc3)CCCN2[C@@H](C#N)c2ccc(N(C)C)cc2)cc1`, the AC50 in [8] was 5.01 µM (inconclusive).

Take `COc1ccc(C2C(C(C)=O)=C(C)N=c3s/c(=C\c4cc(C)n(C)c4C)c(=O)n32)c(OC)c1` (configuration not stated): the IC50 in assay [1] was > 100 µM (inactive).

Turning to `Cc1n[nH]c2c1C(c1c(C)nn(C)c1C)C(C#N)=C(N)O2` (configuration not stated), in [4], the AC50 was 4.2 µM (active). In assay [5], the EC50 was 4.86 µM (active).

Consider `Clc1ccsc1-c1ccc2ccccc2n1`, for which the IC50 in assay [1] was 16 µM (active).

Consider `N[C@@H](Cc1cccnn1)C(=O)O`, for which, in [8], the half-maximal activity concentration (AC50) is 3.16 µM (inconclusive).

On to `Cc1ccc(/C=N/NC(=O)Cn2nccc2C)o1`, for which the values for the AC50 in assay [8] and in assay [9] were 15.8 µM (inconclusive) and 11.2 µM (inconclusive), respectively.

As for `O=C(O)/C=C\C(=O)Nc1ccc(Oc2ccc(Br)cc2)cc1`, in [4], the AC50 is 14.6 µM (active). Also, the EC50 in assay [5] was 11 µM (active).

With `O=c1cc(C23CC4CC(CC(C4)C2)C3)[nH][nH]1`, in assay [4], the AC50 is 2.85 µM (active). Further, in [5], the EC50 is 2.52 µM (active).

The values above are taken from ChEMBL document CHEMBL1201862, “PubChem BioAssay data set” (2004).
